{
  "source": "paper PMC11513893",
  "about": "“Discovery of Oral Degraders of the ROS1 Fusion Protein with Potent Activity against Secondary Resistance Mutations” (Journal of Medicinal Chemistry, 2024)",
  "key": {"[1]": {"assay": "Metabolic stability in human microsomes", "assay_type": "in vitro ADME", "conditions": "human, pooled human microsomes, pH 7.4, 250 nM compound, NADPH, 37 °C", "description": "(§1) Pooled human and rat microsomes were prepared and stored at −80 °C prior to use. A master-mix containing microsome, phosphate buffer, and test compound (9 series) solution was made as follows: (1) 3 μL of microsome (20 mg/mL) was diluted with mixed 30 μL of potassium phosphate buffer (pH 7.4; 10×) and 246 μL of water; (2) 3 μL of 25 μM drug solution was added to the microsome; (3) the master solution was prewarmed at 37 °C for 5 min. NADPH solution A (15 μL) and NADPH solution B (3 μL) from Promega were added to the above-mentioned master solution to initiate the reaction. The final concentration of 9 compounds in the reaction system was 250 nM. An aliquot of 20 μL was pipetted from the reaction solution and stopped by the addition of 180 μL of cold MeCN containing 25 ng of Tamoxifen-(N,N-dimethyl-13C2)-15N as an internal standard at the designated time points (0, 5, 15, 30, 45, and 60 min). The incubation solution was vortexed-mixed (800 rpm/10 min) and centrifuged at 3500 rpm for 10 min to precipitate proteins. The supernatant was collected and used for the LC/MS/MS analysis. The natural log of the remaining percentage of the test compound was plotted against time and the gradient of the line was determined."}, "PTK2B": {"molecular_target": "PTK2B (Homo sapiens, UniProt Q14289)", "sequence (Q14289 whole entry, species assumed)": "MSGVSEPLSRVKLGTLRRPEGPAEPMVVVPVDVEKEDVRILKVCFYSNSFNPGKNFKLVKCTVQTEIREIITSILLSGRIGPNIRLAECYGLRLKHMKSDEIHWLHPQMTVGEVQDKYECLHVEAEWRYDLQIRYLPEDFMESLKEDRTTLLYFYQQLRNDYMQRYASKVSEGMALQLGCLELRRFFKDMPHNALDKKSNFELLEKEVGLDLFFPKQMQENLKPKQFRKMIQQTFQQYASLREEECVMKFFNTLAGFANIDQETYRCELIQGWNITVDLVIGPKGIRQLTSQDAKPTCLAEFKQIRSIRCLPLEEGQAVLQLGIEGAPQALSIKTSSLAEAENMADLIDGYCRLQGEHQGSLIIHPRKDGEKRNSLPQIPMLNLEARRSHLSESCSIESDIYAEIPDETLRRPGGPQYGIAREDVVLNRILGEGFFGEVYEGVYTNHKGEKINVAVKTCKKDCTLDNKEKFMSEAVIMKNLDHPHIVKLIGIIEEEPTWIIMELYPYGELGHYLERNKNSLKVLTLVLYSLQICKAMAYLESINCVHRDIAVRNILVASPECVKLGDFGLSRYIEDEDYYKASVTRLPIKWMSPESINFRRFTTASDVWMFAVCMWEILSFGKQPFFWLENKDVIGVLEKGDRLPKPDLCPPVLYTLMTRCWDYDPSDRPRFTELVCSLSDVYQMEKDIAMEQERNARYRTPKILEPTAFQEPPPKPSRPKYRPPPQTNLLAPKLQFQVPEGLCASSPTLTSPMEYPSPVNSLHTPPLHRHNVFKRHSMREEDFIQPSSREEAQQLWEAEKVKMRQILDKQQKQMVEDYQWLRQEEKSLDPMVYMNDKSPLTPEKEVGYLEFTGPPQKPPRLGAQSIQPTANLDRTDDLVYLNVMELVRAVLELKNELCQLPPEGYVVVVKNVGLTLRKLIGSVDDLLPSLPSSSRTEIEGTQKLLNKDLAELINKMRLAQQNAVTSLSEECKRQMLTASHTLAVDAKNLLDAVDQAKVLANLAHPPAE", "assay": "Kinase assay", "assay_type": "biochemical", "conditions": "average of duplicate measurements"}, "ROS1 (G2101C)": {"molecular_target": "ROS1 (G2101C) (Homo sapiens, UniProt P08922, G2101C)", "assay": "Kinase assay", "assay_type": "biochemical", "conditions": "average of duplicate measurements"}, "ROS1 (L2086F)": {"system": "ROS1 (L2086F)", "assay": "Degradation assay", "assay_type": "cell-based", "conditions": "average of duplicate measurements", "description": "(§2) However, the degradation selectivity of 9o often contrasts with its kinase binding selectivity as determined in cells treated with 9o where the kinase level was measurable by Western blot analysis. […] For example, FLT3, CHEK2, and FES, all with kinase binding at <10 nM, were only moderately or minimally degraded, if at all (Table 9).\n(§3) Protein levels were analyzed using a WES instrument according to the WES User Guide from ProteinSimple in duplicate experiments. The samples were mixed with the fluorescent 5 master mix (ProteinSimple) and then heated at 95 °C for 5 min. Boiled samples, biotinylated protein ladder, antibody diluent, Streptavidin-HRP, primary antibodies, ProteinSimple horseradish peroxidase conjugated antirabbit or antimouse secondary antibodies, luminol-peroxide, and wash buffer were loaded into the WES plate (Wes 12–230 kDa Prefilled Plates with Split Buffer, ProteinSimple). The plates and capillary cartridges were loaded into the WES instrument, and protein separation, antibody incubation, and imaging were performed according to manufacturer’s instructions. Compass software (ProteinSimple) was used to acquire the data and to generate the virtual blot image reconstruction and chemiluminescence signal intensity electropherograms. […] Protein levels are expressed as the AUC of the peak chemiluminescence intensity. […]"}, "FES": {"molecular_target": "FES (Homo sapiens, UniProt P07332)", "sequence (P07332 whole entry, species assumed)": "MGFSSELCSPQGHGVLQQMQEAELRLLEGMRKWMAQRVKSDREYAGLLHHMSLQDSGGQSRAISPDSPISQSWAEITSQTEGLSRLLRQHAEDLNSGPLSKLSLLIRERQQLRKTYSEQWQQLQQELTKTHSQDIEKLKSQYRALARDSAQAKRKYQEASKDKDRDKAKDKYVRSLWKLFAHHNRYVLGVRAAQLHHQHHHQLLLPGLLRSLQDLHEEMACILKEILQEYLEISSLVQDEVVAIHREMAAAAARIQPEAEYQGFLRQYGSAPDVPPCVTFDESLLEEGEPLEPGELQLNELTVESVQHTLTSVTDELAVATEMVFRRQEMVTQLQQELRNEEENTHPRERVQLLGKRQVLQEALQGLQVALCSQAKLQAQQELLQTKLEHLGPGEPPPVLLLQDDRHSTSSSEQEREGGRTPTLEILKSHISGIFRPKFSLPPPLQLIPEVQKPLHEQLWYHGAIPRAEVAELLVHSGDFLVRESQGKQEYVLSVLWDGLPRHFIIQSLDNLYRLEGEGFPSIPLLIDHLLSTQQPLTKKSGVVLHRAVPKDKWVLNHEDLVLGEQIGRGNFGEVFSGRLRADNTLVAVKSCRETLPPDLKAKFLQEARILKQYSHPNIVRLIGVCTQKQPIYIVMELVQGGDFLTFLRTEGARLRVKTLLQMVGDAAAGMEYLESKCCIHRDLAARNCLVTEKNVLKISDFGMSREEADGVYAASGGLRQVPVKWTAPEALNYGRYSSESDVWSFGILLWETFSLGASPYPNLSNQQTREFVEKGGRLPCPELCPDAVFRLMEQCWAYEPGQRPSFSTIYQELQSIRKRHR", "assay": "Kinase assay", "assay_type": "biochemical", "conditions": "average of duplicate measurements"}, "[2]": {"system": "Ba/F3 SLC34A2-ROS1 G2032R xenograft tumors", "assay": "Mouse efficacy study, Ba/F3 SLC34A2-ROS1 G2032R xenograft", "assay_type": "in vivo", "conditions": "NOD/SCID mice", "description": "All the procedures related to animal handling, care, and treatment in this study were performed according to guidelines approved by the Institutional Animal Care and Use Committee (IACUC) of Xavier University of Louisiana following the guidance of the AAALAC. Ba/F3-ROS1 and Ba/F3-ROS1-G2032R cells were maintained in RPMI 1640 medium supplemented with 10% fetal bovine serum. The cells growing in an exponential growth phase were harvested and counted for tumor inoculation. Female NOD/SCID mice 6–8 weeks of age were allowed to adapt to laboratory conditions for 10 days prior to dosing and were allowed food and water ad libitum. Each mouse was inoculated subcutaneously in the right flank with Ba/F3 CD74-ROS1 or Ba/F3 SL34A2-ROS1 G2032R cells (1 × 10^6) in 0.2 mL of PBS mixed with Matrigel (50:50) for tumor development."}, "[3]": {"assay": "Metabolic stability in rat microsomes", "assay_type": "in vitro ADME", "conditions": "rat, pooled rat microsomes, pH 7.4, 250 nM compound, NADPH, 37 °C", "description": "as §1"}, "CAMK2G": {"molecular_target": "CAMK2G (Homo sapiens, UniProt Q13555)", "sequence (Q13555 whole entry, species assumed)": "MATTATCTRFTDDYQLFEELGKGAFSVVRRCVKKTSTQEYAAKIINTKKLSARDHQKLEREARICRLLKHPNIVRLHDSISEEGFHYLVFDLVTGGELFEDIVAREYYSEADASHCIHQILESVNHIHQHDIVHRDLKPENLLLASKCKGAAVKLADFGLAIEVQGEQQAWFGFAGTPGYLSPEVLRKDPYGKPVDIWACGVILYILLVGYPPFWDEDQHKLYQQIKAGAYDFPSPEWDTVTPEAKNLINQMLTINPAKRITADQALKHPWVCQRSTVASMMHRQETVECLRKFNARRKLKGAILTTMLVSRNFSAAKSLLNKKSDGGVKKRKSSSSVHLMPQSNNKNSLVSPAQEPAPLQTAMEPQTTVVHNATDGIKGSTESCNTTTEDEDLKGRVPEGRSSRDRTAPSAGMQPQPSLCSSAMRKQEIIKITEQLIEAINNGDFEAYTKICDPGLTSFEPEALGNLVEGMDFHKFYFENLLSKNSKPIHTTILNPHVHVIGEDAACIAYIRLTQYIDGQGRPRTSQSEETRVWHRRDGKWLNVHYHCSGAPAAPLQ", "assay": "Kinase assay", "assay_type": "biochemical", "conditions": "average of duplicate measurements"}, "ROS1 (G2032R)": {"system": "ROS1 (G2032R)", "assay": "Degradation assay (Western blot in treated cells)", "assay_type": "cell-based", "conditions": "average of duplicate measurements", "description": "as §2, §3"}, "FER": {"molecular_target": "FER (Homo sapiens, UniProt P16591)", "sequence (P16591 whole entry, species assumed)": "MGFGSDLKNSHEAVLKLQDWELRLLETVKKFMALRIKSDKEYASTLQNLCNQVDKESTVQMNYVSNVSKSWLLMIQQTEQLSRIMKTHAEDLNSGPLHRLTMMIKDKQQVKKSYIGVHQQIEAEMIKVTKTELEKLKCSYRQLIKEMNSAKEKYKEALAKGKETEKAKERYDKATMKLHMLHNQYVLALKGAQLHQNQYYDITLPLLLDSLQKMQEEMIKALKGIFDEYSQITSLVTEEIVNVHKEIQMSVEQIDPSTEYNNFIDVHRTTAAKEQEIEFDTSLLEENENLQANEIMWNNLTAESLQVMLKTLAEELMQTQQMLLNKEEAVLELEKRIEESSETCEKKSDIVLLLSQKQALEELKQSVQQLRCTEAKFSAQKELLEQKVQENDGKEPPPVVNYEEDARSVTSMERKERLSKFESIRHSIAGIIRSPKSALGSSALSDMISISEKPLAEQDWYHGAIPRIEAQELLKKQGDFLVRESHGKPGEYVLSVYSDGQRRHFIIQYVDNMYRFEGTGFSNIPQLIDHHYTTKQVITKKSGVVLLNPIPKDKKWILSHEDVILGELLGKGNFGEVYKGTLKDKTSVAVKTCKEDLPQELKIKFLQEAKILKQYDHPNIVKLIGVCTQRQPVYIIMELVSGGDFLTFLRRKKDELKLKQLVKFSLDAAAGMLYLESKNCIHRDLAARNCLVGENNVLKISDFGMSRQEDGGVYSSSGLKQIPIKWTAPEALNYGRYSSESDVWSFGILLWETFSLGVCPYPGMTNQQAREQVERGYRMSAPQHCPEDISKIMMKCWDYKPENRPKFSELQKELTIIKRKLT", "assay": "Kinase assay", "assay_type": "biochemical", "conditions": "average of duplicate measurements"}, "FAK/PTK2": {"molecular_target": "FAK/PTK2 (Homo sapiens, UniProt Q05397)", "sequence (Q05397 whole entry)": "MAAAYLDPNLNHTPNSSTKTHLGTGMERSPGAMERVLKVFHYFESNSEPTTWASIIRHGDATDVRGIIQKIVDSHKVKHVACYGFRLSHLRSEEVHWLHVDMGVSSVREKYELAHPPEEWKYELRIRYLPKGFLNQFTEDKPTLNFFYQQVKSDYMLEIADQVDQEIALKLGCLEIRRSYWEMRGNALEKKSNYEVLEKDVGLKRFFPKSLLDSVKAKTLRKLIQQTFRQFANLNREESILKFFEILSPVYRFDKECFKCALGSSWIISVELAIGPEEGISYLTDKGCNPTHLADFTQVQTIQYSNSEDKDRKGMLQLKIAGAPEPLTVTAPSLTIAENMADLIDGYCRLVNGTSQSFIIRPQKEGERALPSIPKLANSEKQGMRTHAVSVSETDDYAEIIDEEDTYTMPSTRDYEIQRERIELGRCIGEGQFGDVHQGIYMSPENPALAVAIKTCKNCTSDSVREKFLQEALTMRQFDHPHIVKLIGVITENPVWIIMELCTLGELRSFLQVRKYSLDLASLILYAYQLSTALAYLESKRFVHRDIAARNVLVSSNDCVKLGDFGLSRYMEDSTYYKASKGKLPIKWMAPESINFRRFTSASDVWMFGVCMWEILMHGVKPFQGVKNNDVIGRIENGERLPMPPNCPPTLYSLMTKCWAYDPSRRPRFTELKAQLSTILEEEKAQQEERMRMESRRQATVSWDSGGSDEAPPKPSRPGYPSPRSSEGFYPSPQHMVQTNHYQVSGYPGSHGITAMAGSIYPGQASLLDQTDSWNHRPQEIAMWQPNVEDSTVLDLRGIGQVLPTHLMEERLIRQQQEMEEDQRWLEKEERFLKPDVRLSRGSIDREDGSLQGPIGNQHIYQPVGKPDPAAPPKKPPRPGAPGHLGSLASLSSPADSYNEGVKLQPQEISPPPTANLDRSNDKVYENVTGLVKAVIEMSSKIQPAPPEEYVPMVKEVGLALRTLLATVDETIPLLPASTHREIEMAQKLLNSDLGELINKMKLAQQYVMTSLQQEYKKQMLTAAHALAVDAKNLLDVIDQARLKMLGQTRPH", "assay": "Kinase assay", "assay_type": "biochemical", "conditions": "average of duplicate measurements"}, "ROS1": {"system": "ROS1", "assay": "ROS1 degradation in Ba/F3 cells (WES immunoblotting)", "assay_type": "cell-based", "conditions": "maximal degradation of ROS1 in Ba/F3 cells", "in_short": "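ROS1 and phospho-ROS1 (Tyr2274/2334) in Ba/F3 lysates quantified by capillary immunoassay (WES) with chemiluminescent detection, duplicate experiments. Levels expressed as AUC of the chemiluminescence peak.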"}, "CHEK2": {"molecular_target": "CHEK2 (Homo sapiens, UniProt O96017)", "sequence (O96017 whole entry, species assumed)": "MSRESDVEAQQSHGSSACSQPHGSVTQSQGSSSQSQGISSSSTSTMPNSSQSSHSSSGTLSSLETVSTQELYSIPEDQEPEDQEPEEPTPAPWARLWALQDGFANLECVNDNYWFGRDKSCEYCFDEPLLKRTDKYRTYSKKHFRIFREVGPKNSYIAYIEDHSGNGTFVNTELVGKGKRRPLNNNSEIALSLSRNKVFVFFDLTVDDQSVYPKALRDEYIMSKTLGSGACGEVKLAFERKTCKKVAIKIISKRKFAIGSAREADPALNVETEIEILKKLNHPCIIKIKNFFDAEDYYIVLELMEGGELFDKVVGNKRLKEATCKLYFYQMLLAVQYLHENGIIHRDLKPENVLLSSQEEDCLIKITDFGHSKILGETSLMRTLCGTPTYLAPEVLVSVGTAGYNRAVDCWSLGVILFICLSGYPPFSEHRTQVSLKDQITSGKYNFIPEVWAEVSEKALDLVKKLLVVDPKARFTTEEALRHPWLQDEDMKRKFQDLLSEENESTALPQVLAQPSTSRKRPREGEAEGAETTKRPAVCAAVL", "assay": "Kinase assay", "assay_type": "biochemical", "conditions": "average of duplicate measurements"}},
  "note": "Several values for one entry are separate records, joined by “and”; a condition that tells them apart may be missing. Equal entries are not always repeated.",
  "data": [
    {"smiles": "COc1cc(N2CCC(N3CCN(CC4CCN(c5ccc6c(c5)CN(C5CCC(=O)NC5=O)C6=O)CC4)CC3)CC2)ccc1Nc1ncc(Cl)c(Nc2ccccc2P(C)(C)=O)n1", "note": "(stereo not shown) [9o, 3-(5-(4-((4-(1-(4-((5-Chloro-4-((2-(dimethylphosphoryl)phenyl)amino)pyrimidin-2-yl)amino)-3-methoxyphenyl)piperidin-4-yl)piperazin-1-yl)methyl)piperidin-1-yl)-1-oxoisoindolin-2-yl)piperidine-2,6-dione]", "values": [
      {"measurement": "microsomal CLint at 1 h, 0.25 µM", "setting": "[1]", "value": 71.1, "unit": "µL/min/mg"},
      {"measurement": "half-life at 1 h, 0.25 µM", "setting": "[1]; read-out: metabolic stability in human microsomes T1/2", "value": 48.8, "unit": "min"},
      {"measurement": "IC50", "setting": "PTK2B", "value": 34, "unit": "nM"},
      {"measurement": "IC50", "setting": "ROS1 (G2101C)", "value": 83, "unit": "nM"},
      {"measurement": "DC50", "setting": "ROS1 (L2086F)", "value": 5.4, "unit": "nM"},
      {"measurement": "IC50", "setting": "FES", "value": "< 10 nM and 7.5 nM"},
      {"measurement": "TGI (tumor growth inhibition)", "setting": "[2]; 10 mg/kg PO qd", "value": 33, "unit": "%"},
      {"measurement": "TGI (tumor growth inhibition)", "setting": "[2]; 30 mg/kg PO qd", "value": 78, "unit": "%"},
      {"measurement": "microsomal CLint at 1 h, 0.25 µM", "setting": "[3]", "value": 17.4, "unit": "µL/min/mg"},
      {"measurement": "half-life at 1 h, 0.25 µM", "setting": "[3]; read-out: metabolic stability in rat microsomes T1/2", "value": 79.7, "unit": "min"},
      {"measurement": "IC50", "setting": "CAMK2G", "value": 48, "unit": "nM"},
      {"measurement": "DC50", "setting": "ROS1 (G2032R)", "value": 13.2, "unit": "nM"},
      {"measurement": "IC50", "setting": "FER", "value": 3.1, "unit": "nM"},
      {"measurement": "IC50", "setting": "FAK/PTK2", "value": 2.4, "unit": "nM"},
      {"measurement": "Dmax (%) (ROS1)", "setting": "ROS1", "value": 99, "unit": "%"},
      {"measurement": "IC50", "setting": "CHEK2", "value": "< 10 nM and 3.6 nM"}
    ]}
  ]
}
